US8063071B2 (GlaxoSmithKline, LLC, priority 2007, dated 2011)
Where a name gives a salt, the structure may show the parent alone.

How the values were obtained:
[1] = target: T1, Recombinant human IKKβ (residues 1-737) (Homo sapiens, UniProt O14920); experiment: IKK2 assay (TR-FRET); format: biochemical; settings: ATP 1 μM final, read-out: pIC50 against IKK2 (converted)
T1 construct: Recombinant human IKKβ (residues 1-737); GST (C); made in house
T1 sequence (O14920 1-737): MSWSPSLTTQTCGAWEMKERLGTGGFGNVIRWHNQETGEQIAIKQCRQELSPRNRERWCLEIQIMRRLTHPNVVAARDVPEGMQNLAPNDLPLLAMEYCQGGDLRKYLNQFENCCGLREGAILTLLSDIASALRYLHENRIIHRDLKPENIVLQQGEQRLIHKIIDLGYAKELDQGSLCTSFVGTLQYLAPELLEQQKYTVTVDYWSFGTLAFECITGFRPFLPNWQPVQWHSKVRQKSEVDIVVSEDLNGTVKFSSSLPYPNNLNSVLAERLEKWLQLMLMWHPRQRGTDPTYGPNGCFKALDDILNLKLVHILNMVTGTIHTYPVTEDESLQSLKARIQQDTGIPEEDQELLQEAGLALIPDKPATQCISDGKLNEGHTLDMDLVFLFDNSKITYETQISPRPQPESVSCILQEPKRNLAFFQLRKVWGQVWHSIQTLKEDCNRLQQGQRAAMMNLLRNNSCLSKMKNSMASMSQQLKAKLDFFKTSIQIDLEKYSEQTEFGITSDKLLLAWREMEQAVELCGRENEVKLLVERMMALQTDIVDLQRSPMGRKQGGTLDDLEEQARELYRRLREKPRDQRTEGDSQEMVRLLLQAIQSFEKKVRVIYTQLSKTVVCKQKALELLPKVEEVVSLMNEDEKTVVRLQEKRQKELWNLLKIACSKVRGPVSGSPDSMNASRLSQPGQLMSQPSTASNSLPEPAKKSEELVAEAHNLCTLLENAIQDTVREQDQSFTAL
Summary of the method: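 Baculovirus-expressed C-terminal GST-tagged IKKβ (0.5-5 nM final) in HEPES pH 7.4, MgCl2, CHAPS, DTT, BSA with 1.7% DMSO; 25 nM GST-IB substrate and 1 μM ATP, 15 min at room temperature. EDTA stop; phospho-Ser32/36 detected by Eu-antibody/APC-anti-GST TR-FRET, 665/620 nm ratio.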

[2] = tested on: human monocyte stimulated cytokine production (TNF-α); experiment: Monocyte assay (LPS-stimulated TNF-α production); format: cell-based; settings: for IC50: 24 h, 200 ng/mL LPS, TNF-α by ELISA; for inhibition at 0.3 µM: read-out: inhibition at 300 nM in the monocyte assay
Summary of the method: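 Human CD14+ monocytes were purified from blood and plated at 1×10^6 cells/mL in RPMI 1640 with 10% FBS. Compound was added 30 min before stimulation with 200 ng/mL LPS (0.1% DMSO final), followed by 24 hrs at 37 C. Supernatant TNF-α was measured by ELISA, and viability by trypan blue exclusion.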

| SMILES | IC50 [1] | IC50 [2] | inhibition at 0.3 µM [2] |
| --- | --- | --- | --- |
| CCS(=O)(=O)N1CCC(c2c[nH]c3c(C(N)=O)cc(-c4cc(F)cc(CNCc5cccs5)c4)cc23)CC1 [Example 325, 3-[1-(ethylsulfonyl)-4-piperidinyl]-5-(3-fluoro-5-{[(2-thienylmethyl)amino]methyl}phenyl)-1H-indole-7-carboxamide trifluoroacetate] | ≤ 10 µM | ≤ 1.5 µM | – |
| CCS(=O)(=O)N1CCC(c2c[nH]c3c(C(N)=O)cc(-c4cc(F)cc(CNCCOC)c4)cc23)CC1 [Example 326, 3-[1-(ethylsulfonyl)-4-piperidinyl]-5-[3-fluoro-5-({[2-(methyloxy)ethyl]amino}methyl)phenyl]-1H-indole-7-carboxamide trifluoroacetate] | ≤ 10 µM | ≤ 1.5 µM | – |
| CCS(=O)(=O)N1CCC(c2c[nH]c3c(C(N)=O)cc(-c4cc(F)cc(CNCCCOC)c4)cc23)CC1 [Example 327, 3-[1-(ethylsulfonyl)-4-piperidinyl]-5-[3-fluoro-5-({[3-(methyloxy)propyl]amino}methyl)phenyl]-1H-indole-7-carboxamide trifluoroacetate] | ≤ 10 µM | ≤ 1.5 µM | – |
| CCS(=O)(=O)N1CCC(c2c[nH]c3c(C(N)=O)cc(-c4cc(F)cc(CNCc5ccco5)c4)cc23)CC1 [Example 328, 3-[1-(ethylsulfonyl)-4-piperidinyl]-5-(3-fluoro-5-{[(2-furanylmethyl)amino]methyl}phenyl)-1H-indole-7-carboxamide trifluoroacetate] | ≤ 10 µM | – | 0 to 60% |
| CCS(=O)(=O)N1CCC(c2c[nH]c3c(C(N)=O)cc(-c4cc(F)cc(CNCCC(C)C)c4)cc23)CC1 [Example 329, 3-[1-(ethylsulfonyl)-4-piperidinyl]-5-(3-fluoro-5-{[(3-methylbutyl)amino]methyl}phenyl)-1H-indole-7-carboxamide trifluoroacetate] | ≤ 10 µM | ≤ 1.5 µM | – |
| CCS(=O)(=O)N1CCC(c2c[nH]c3c(C(N)=O)cc(-c4cc(F)cc(CNCc5ccc(C)o5)c4)cc23)CC1 [Example 330, 3-[1-(ethylsulfonyl)-4-piperidinyl]-5-[3-fluoro-5-({[(5-methyl-2-furanyl)methyl]amino}methyl)phenyl]-1H-indole-7-carboxamide trifluoroacetate] | ≤ 10 µM | > 1 µM | – |
| CCS(=O)(=O)N1CCC(c2c[nH]c3c(C(N)=O)cc(-c4cccc(C5CCCN5)c4)cc23)CC1 (stereo not shown) [Example 332, 3-[1-(ethylsulfonyl)-4-piperidinyl]-5-[3-(2-pyrrolidinyl)phenyl]-1H-indole-7-carboxamide trifluoroacetate] | ≤ 10 µM | ≤ 1.5 µM | – |
| CCS(=O)(=O)N1CCC(c2c[nH]c3c(C(N)=O)cc(-c4cc(CNC)ccc4F)cc23)CC1 [Example 333, 3-[1-(ethylsulfonyl)-4-piperidinyl]-5-{2-fluoro-5-[(methylamino)methyl]phenyl}-1H-indole-7-carboxamide trifluoroacetate] | ≤ 10 µM | ≤ 1.5 µM | – |
| CCCNCc1ccc(F)c(-c2cc(C(N)=O)c3[nH]cc(C4CCN(S(=O)(=O)CC)CC4)c3c2)c1 [Example 334, 3-[1-(ethylsulfonyl)-4-piperidinyl]-5-{2-fluoro-5-[(propylamino)methyl]phenyl}-1H-indole-7-carboxamide trifluoroacetate] | ≤ 10 µM | ≤ 1.5 µM | – |
| CCS(=O)(=O)N1CCC(c2c[nH]c3c(C(N)=O)cc(-c4cc(CNCC(C)C)ccc4F)cc23)CC1 [Example 335, 3-[1-(ethylsulfonyl)-4-piperidinyl]-5-(2-fluoro-5-{[(2-methylpropyl)amino]methyl}phenyl)-1H-indole-7-carboxamide trifluoroacetate] | ≤ 10 µM | ≤ 1.5 µM | – |
| CCS(=O)(=O)N1CCC(c2c[nH]c3c(C(N)=O)cc(-c4cc(CNCC(C)(C)C)ccc4F)cc23)CC1 [Example 336, 5-(5-{[(2,2-dimethylpropyl)amino]methyl}-2-fluorophenyl)-3-[1-(ethylsulfonyl)-4-piperidinyl]-1H-indole-7-carboxamide trifluoroacetate] | ≤ 10 µM | ≤ 1.5 µM | – |
| CCS(=O)(=O)N1CCC(c2c[nH]c3c(C(N)=O)cc(-c4cc(CN[C@@H](C)C(C)C)ccc4F)cc23)CC1 [Example 337, 5-[5-({[(1S)-1,2-dimethylpropyl]amino}methyl)-2-fluorophenyl]-3-[1-(ethylsulfonyl)-4-piperidinyl]-1H-indole-7-carboxamide trifluoroacetate] | ≤ 10 µM | ≤ 1.5 µM | – |
| CCS(=O)(=O)N1CCC(c2c[nH]c3c(C(N)=O)cc(-c4cc(CN[C@H](C)C(C)C)ccc4F)cc23)CC1 [Example 338, 5-[5-({[(1R)-1,2-dimethylpropyl]amino}methyl)-2-fluorophenyl]-3-[1-(ethylsulfonyl)-4-piperidinyl]-1H-indole-7-carboxamide trifluoroacetate] | ≤ 10 µM | > 1 µM | – |
| CCS(=O)(=O)N1CCC(c2c[nH]c3c(C(N)=O)cc(-c4cc(CNCC5CC5)ccc4F)cc23)CC1 [Example 339, 5-(5-{[(cyclopropylmethyl)amino]methyl}-2-fluorophenyl)-3-[1-(ethylsulfonyl)-4-piperidinyl]-1H-indole-7-carboxamide trifluoroacetate] | ≤ 10 µM | > 1 µM | – |
| CCS(=O)(=O)N1CCC(c2c[nH]c3c(C(N)=O)cc(-c4cc(CN5CCCC5)ccc4F)cc23)CC1 [Example 340, 3-[1-(ethylsulfonyl)-4-piperidinyl]-5-[2-fluoro-5-(1-pyrrolidinylmethyl)phenyl]-1H-indole-7-carboxamide trifluoroacetate] | ≤ 10 µM | > 1 µM | – |
| CCS(=O)(=O)N1CCC(c2c[nH]c3c(C(N)=O)cc(-c4cc(CN5CCOCC5)ccc4F)cc23)CC1 [Example 341, 3-[1-(ethylsulfonyl)-4-piperidinyl]-5-[2-fluoro-5-(4-morpholinylmethyl)phenyl]-1H-indole-7-carboxamide trifluoroacetate] | ≤ 10 µM | > 1 µM | – |
| CCS(=O)(=O)N1CCC(c2c[nH]c3c(C(N)=O)cc(-c4cc(CNCCOC)ccc4F)cc23)CC1 [Example 342, 3-[1-(ethylsulfonyl)-4-piperidinyl]-5-[2-fluoro-5-({[2-(methyloxy)ethyl]amino}methyl)phenyl]-1H-indole-7-carboxamide trifluoroacetate] | ≤ 10 µM | ≤ 1.5 µM | – |
| CCS(=O)(=O)N1CCC(c2c[nH]c3c(C(N)=O)cc(-c4cc(CNCCCOC)ccc4F)cc23)CC1 [Example 343, 3-[1-(ethylsulfonyl)-4-piperidinyl]-5-[2-fluoro-5-({[3-(methyloxy)propyl]amino}methyl)phenyl]-1H-indole-7-carboxamide trifluoroacetate] | ≤ 10 µM | ≤ 1.5 µM | – |
| CCS(=O)(=O)N1CCC(c2c[nH]c3c(C(N)=O)cc(-c4cccc(C5CCCN5C)c4)cc23)CC1 (stereo not shown) [Example 344, 3-[1-(ethylsulfonyl)-4-piperidinyl]-5-[3-(1-methyl-2-pyrrolidinyl)phenyl]-1H-indole-7-carboxamide trifluoroacetate] | ≤ 10 µM | ≤ 1.5 µM | – |
| CCS(=O)(=O)N1CCC(c2c[nH]c3c(C(N)=O)cc(-c4cccc(CCNCC(C)C)c4)cc23)CC1 [Example 345, 3-[1-(ethylsulfonyl)-4-piperidinyl]-5-(3-{2-[(2-methylpropyl)amino]ethyl}phenyl)-1H-indole-7-carboxamide trifluoroacetate] | ≤ 10 µM | – | 0 to 60% |
| CCNCCc1cccc(-c2cc(C(N)=O)c3[nH]cc(C4CCN(S(=O)(=O)CC)CC4)c3c2)c1 [Example 346, 5-{3-[2-(ethylamino)ethyl]phenyl}-3-[1-(ethylsulfonyl)-4-piperidinyl]-1H-indole-7-carboxamide trifluoroacetate] | ≤ 10 µM | ≤ 1.5 µM | – |
| CCCNCCc1cccc(-c2cc(C(N)=O)c3[nH]cc(C4CCN(S(=O)(=O)CC)CC4)c3c2)c1 [Example 347, 3-[1-(ethylsulfonyl)-4-piperidinyl]-5-{3-[2-(propylamino)ethyl]phenyl}-1H-indole-7-carboxamide trifluoroacetate] | ≤ 10 µM | – | 0 to 60% |
| CCS(=O)(=O)N1CCC(c2c[nH]c3c(C(N)=O)cc(-c4cccc(CCN(C)C)c4)cc23)CC1 [Example 348, 5-{3-[2-(dimethylamino)ethyl]phenyl}-3-[1-(ethylsulfonyl)-4-piperidinyl]-1H-indole-7-carboxamide trifluoroacetate] | ≤ 10 µM | ≤ 1.5 µM | – |
